# Reference: patent US20090131481A1, “Transcription Factor Modulating Compounds and Methods of Use Thereof” (Paratek Pharmaceuticals, Inc., published 2009)
# Where two headings read alike, the source gives them in different places.
# Assays:
# P. aeruginosa = P. aeruginosa cytotoxicity whole cell assay (J774 cells, LDH release); details: relative to vehicle treated cells infected with wild type P. aeruginosa
# ExsA = biological target: T1, ExsA (Pseudomonas aeruginosa, UniProt P26993); test: Chemiluminescence-based ExsA-DNA binding assay; parameters: species or system P. aeruginosa; details: Table 7, cell-free system; read-out: ExsA EC50
# T1 construct: made in house
# T1 sequence (P26993 1-278): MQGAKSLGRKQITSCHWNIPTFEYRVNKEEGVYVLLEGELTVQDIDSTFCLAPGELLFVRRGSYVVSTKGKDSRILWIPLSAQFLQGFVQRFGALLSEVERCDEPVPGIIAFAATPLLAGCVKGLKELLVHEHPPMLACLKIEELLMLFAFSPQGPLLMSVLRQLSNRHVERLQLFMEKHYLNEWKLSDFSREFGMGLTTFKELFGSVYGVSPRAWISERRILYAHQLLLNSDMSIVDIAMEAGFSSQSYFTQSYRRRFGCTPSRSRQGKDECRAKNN
# LcrF (VirF) = LcrF (VirF) (Yersinia pestis, UniProt P28808); test: biochemical; format: binding, Y. pseudotuberculosis
# Chain of LcrF (VirF) (P28808 whole entry, looked up): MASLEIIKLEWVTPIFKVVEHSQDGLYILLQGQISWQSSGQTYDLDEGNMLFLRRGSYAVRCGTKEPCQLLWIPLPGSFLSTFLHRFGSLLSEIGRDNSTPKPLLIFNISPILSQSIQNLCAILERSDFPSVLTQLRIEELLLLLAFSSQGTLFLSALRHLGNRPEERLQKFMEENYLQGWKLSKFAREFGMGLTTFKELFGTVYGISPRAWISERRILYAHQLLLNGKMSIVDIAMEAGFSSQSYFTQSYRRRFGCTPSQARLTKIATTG
# Y. pseudotuberculosis = test: microbe, parasite or virus in culture; details: Yersinia pseudotuberculosis, J774, read-out: % Cytotoxicity
# [1] = EC50 for inhibition of LcrF(VirF)-DNA binding
# [2] = read-out: EC50 for inhibition of LcrF(VirF)-DNA binding
Structure (SMILES),Cytotoxicity at 50 μg/mL Pseudomonas (P. aeruginosa),EC50 (ExsA),EC50 (LcrF (VirF); [1]),activity at 50 µg/mL (Y. pseudotuberculosis),EC50 (LcrF (VirF); [2])
CS(=O)(=O)c1ccc(/C=C/C(=O)Nc2ccc(-c3nc4ccc([N+](=O)[O-])cc4n3O)cc2)cc1 [GU],"** (reduced P. aeruginosa cytotoxicity below 75% of untreated, wild type levels at 50 mg/mL)",< 10 µM,,,
"CC(=O)c1ccc(/C=C/C(=O)N(CC(=O)O)c2ccc(-c3nc4ccc(C#N)cc4n3O)cc2)cc1 [GO, {[(E)-3-(4-Acetyl-phenyl)-acryloyl]-[4-(6-cyano-1-hydroxy-1H-benzoimidazol-2-yl)-phenyl]-amino}-acetic acid]","* (reduced P. aeruginosa cytotoxicity to 99-75% of untreated, wild type levels at 50 mg/mL)",> 25 µM,,,
CC(=O)c1ccc(/C=C/C(=O)Nc2ccc(-c3nc4ccc(F)cc4n3O)cc2)cc1 [GR],"* (reduced P. aeruginosa cytotoxicity to 99-75% of untreated, wild type levels at 50 mg/mL)",10 to 25 µM,,,
O=C(/C=C/c1ccc(C(F)(F)F)nc1)Nc1ccc(-c2nc3ccc([N+](=O)[O-])cc3n2O)cc1 [GT],"** (reduced P. aeruginosa cytotoxicity below 75% of untreated, wild type levels at 50 mg/mL)",< 10 µM,,,
"O=C(O)COn1c(-c2ccc(NC(=O)c3ccc(F)cc3)cc2)nc2ccc([N+](=O)[O-])cc21 [DG, {2-[4-(4-Fluoro-benzoylamino)-phenyl]-6-nitro-benzoimidazol-1-yloxy}-acetic acid]",,,> 25 µM,< 75%,
O=C(Nc1ccc(-c2nc3ccncc3n2O)cc1)c1ccc(F)cc1 [EJ],,> 25 µM,,< 75%,> 25 µM
O=C(Cc1ccc(F)cc1)Nc1ccc(-c2nc3ccc([N+](=O)[O-])cc3n2O)cc1 [G],,> 25 µM,> 25 µM,,
CC(C)c1ccc(/C=C/C(=O)Nc2ccc(-c3nc4ccc([N+](=O)[O-])cc4n3O)cc2)cc1 [CS],,> 25 µM,> 25 µM,< 75%,
O=C(Nc1ccc(-c2nc3ccc([N+](=O)[O-])cc3n2O)cc1)c1ccc(-n2cccn2)cc1 [AB],,< 10 µM,,,
O=C(Nc1ccc(-c2nc3ccc([N+](=O)[O-])cc3n2O)cc1)c1ccc(-n2cncn2)cc1 [K],,< 10 µM,10 to 25 µM,< 75%,
O=C(Nc1ccc(-c2nc3ccc([N+](=O)[O-])cc3n2O)cc1)c1ccccc1F [Q],,,> 25 µM,,
CC(=O)c1ccc(/C=C/C(=O)Nc2ccc(-c3nc4ccc(Br)cc4n3O)cc2)cc1 [GD],"* (reduced P. aeruginosa cytotoxicity to 99-75% of untreated, wild type levels at 50 mg/mL)",< 10 µM,,,
CS(=O)(=O)c1ccc(C(=O)Nc2ccc(-c3nc4ccc([N+](=O)[O-])cc4n3O)cc2)cc1 [AG],,> 25 µM,,,
CC(=O)c1ccc(/C=C/C(=O)Nc2ccc(-c3nc4ccccc4n3O)cc2)cc1 [GH],"* (reduced P. aeruginosa cytotoxicity to 99-75% of untreated, wild type levels at 50 mg/mL)",10 to 25 µM,,,
CCOP(=O)(COn1c(-c2ccc(NC(=O)c3ccc(F)cc3)cc2)nc2ccc([N+](=O)[O-])cc21)OCC [EG],,> 25 µM,,< 75%,> 25 µM
CN1CCN(CCOc2cc3nc(-c4ccc(NC(=O)/C=C/c5ccc(F)cc5)cc4)n(O)c3cc2[N+](=O)[O-])CC1 [FR],"* (reduced P. aeruginosa cytotoxicity to 99-75% of untreated, wild type levels at 50 mg/mL)",,,,
"CC(=O)c1ccc(/C=C/C(=O)N(CC(N)=O)c2ccc(-c3nc4ccc([N+](=O)[O-])cc4n3O)cc2)cc1 [GP, (E)-3-(4-Acetyl-phenyl)-N-carbamoylmethyl-N-[4-(1-hydroxy-6-nitro-1H-benzoimidazol-2-yl)-phenyl]-acrylamide]","* (reduced P. aeruginosa cytotoxicity to 99-75% of untreated, wild type levels at 50 mg/mL)",> 25 µM,,,
"NC(=O)c1ccc2nc(-c3ccc(NC(=O)c4ccc(F)cc4)cc3)n(O)c2c1 [DO, 2-[4-(4-Fluoro-benzoylamino)-phenyl]-3-hdroxy-3H-benzoimidazole-5-carboxylic acid amide]",,> 25 µM,,< 75%,> 25 µM
O=C(Nc1ccc(-c2nc3ccc([N+](=O)[O-])cc3n2O)cc1)c1ccc(O)cc1 [AE],,10 to 25 µM,,,
O=C(Nc1ccc2nc(-c3ccc([N+](=O)[O-])cc3)n(O)c2c1)c1ccc(F)cc1 [CW],,,,< 75%,> 25 µM
"O=C(Nc1ccc(-c2nc3ccc([N+](=O)[O-])cc3n2O)c(OCP(=O)(O)O)c1)c1ccc(F)cc1 [EC, [5-(4-Fluoro-benzoylamino)-2-(1-hydroxy-6-nitro-1H-benzoimidazol-2-yl)-phenoxymethyl]-phosphonic acid]",,> 25 µM,,< 75%,> 25 µM
O=C(/C=C/c1ccc(F)c(F)c1)Nc1ccc(-c2nc3ccc([N+](=O)[O-])cc3n2O)cc1 [W],,10 to 25 µM,10 to 25 µM,< 75%,
O=C(Nc1ccc(-c2nc3ccc([N+](=O)[O-])cc3n2O)cc1)c1ccc2c(c1)CCCC2=O [EP],,> 25 µM,> 25 µM,< 75%,
O=C(CCc1ccc(F)cc1)Nc1ccc(-c2nc3ccc([N+](=O)[O-])cc3n2O)cc1 [L],,> 25 µM,> 25 µM,,
Cc1cccc(C(=O)Nc2ccc(-c3nc4ccc([N+](=O)[O-])cc4n3O)cc2)c1 [O],,,> 25 µM,,

Structure (SMILES),Cytotoxicity at 50 μg/mL Pseudomonas (P. aeruginosa),EC50 (ExsA),EC50 (LcrF (VirF); [1]),activity at 50 µg/mL (Y. pseudotuberculosis),EC50 (LcrF (VirF); [2])
O=C(NCc1ccc(-c2nc3ccc([N+](=O)[O-])cc3n2O)cc1)c1ccc(F)cc1 [Z],,> 25 µM,> 25 µM,,
Cc1ccccc1C(=O)Nc1ccc(-c2nc3ccc([N+](=O)[O-])cc3n2O)cc1 [P],,,> 25 µM,,
O=C(O)c1ccc(C(=O)Nc2ccc(-c3nc4ccc([N+](=O)[O-])cc4n3O)cc2)cc1 [AI],,> 25 µM,,,
CC(=NO)c1ccc2nc(-c3ccc(NC(=O)c4ccc(N(C)C)cc4)cc3)n(O)c2c1 [DF],,> 25 µM,> 25 µM,< 75%,
NS(=O)(=O)c1ccc(C(=O)Nc2ccc(-c3nc4ccc([N+](=O)[O-])cc4n3O)cc2)cc1 [AF],,10 to 25 µM,,,
CCc1cc(-c2nc3ccc([N+](=O)[O-])cc3n2O)ccc1NC(=O)c1ccc(F)cc1 [DK],,> 25 µM,10 to 25 µM,< 75%,
O=C(Nc1ccc(-c2nc3ccc([N+](=O)[O-])cc3n2O)cc1)c1ccc(N2CCOCC2)cc1 [AD],,10 to 25 µM,,,
CC(=O)c1ccc(/C=C/C(=O)Nc2ccc(-c3nc4cc(OCCN5CCN(C)CC5)c([N+](=O)[O-])cc4n3O)cc2)cc1 [FU],"** (reduced P. aeruginosa cytotoxicity below 75% of untreated, wild type levels at 50 mg/mL)",,,,
COc1ccccc1/C=C/C(=O)Nc1ccc(-c2nc3ccc([N+](=O)[O-])cc3n2O)cc1 [U],,< 10 µM,10 to 25 µM,,
O=C(/C=C/c1ccccc1)Nc1ccc(-c2nc3ccc([N+](=O)O)cc3n2O)cc1 [J],,< 10 µM,< 10 µM,< 75%,
O=C(/C=C/c1ccc(O)cc1)Nc1ccc(-c2nc3ccc([N+](=O)[O-])cc3n2O)cc1 [AN],,10 to 25 µM,,,
O=C(Nc1ccc(-c2nc3ccc([N+](=O)[O-])cc3n2O)nc1)c1ccc(F)cc1 [DQ],,> 25 µM,> 25 µM,< 75%,
C/C(=C\c1ccccc1)C(=O)Nc1ccc(-c2nc3ccc([N+](=O)[O-])cc3n2O)cc1 [CT],,> 25 µM,> 25 µM,< 75%,
O=C(/C=C/c1ccc(C(F)(F)F)cc1)Nc1ccc(-c2nc3ccc([N+](=O)[O-])cc3n2O)cc1 [Y],,10 to 25 µM,< 10 µM,,
O=C(Nc1ccc(-c2nc3ccc([N+](=O)[O-])cc3n2OCP(=O)(O)O)cc1)c1ccc(F)cc1 [DV],,> 25 µM,,< 75%,> 25 µM
O=C(Nc1ccc(-c2nc3ccc([N+](=O)[O-])cc3n2O)cc1)c1cccc(F)c1 [N],,,> 25 µM,,
CN(C)CCN(C)c1cc2nc(-c3ccc(NC(=O)/C=C/c4ccc(F)cc4)cc3)n(O)c2cc1[N+](=O)[O-] [FQ],"** (reduced P. aeruginosa cytotoxicity below 75% of untreated, wild type levels at 50 mg/mL)",,,,
Cc1cc(-c2nc3ccc([N+](=O)[O-])cc3n2O)ccc1NC(=O)/C=C/c1ccc(F)cc1 [EN],,> 25 µM,10 to 25 µM,< 75%,
CC(=O)Nc1ccc(C(=O)Nc2ccc(-c3nc4ccc([N+](=O)[O-])cc4n3O)cc2)cc1 [AC],,< 10 µM,10 to 25 µM,< 75%,
CC(=O)c1ccc(C(=O)Nc2ccc(-c3nc4ccc([N+](=O)[O-])cc4n3O)cc2C)cc1 [ER],,,,< 75%,> 25 µM
N#Cc1ccc(/C=C/C(=O)Nc2ccc(-c3nc4ccc([N+](=O)[O-])cc4n3O)cc2)cc1 [X],,< 10 µM,10 to 25 µM,< 75%,
COc1ccc(/C=C/C(=O)Nc2ccc(-c3nc4ccc([N+](=O)[O-])cc4n3O)cc2)cc1 [T],,< 10 µM,< 10 µM,< 75%,
O=C(/C=C/c1ccc(F)cc1)Nc1ccc(-c2nc3ccncc3n2O)cc1 [EK],,> 25 µM,,< 75%,> 25 µM
O=[N+]([O-])c1ccc2nc(-c3ccc(C#Cc4ccc(F)cc4)cc3)n(O)c2c1 [R],,> 25 µM,> 25 µM,,
NC(=NO)c1ccc2nc(-c3ccc(NC(=O)c4ccc(F)cc4)cc3)n(O)c2c1 [CX],,> 25 µM,> 25 µM,< 75%,
